Measurements reported in PubChem BioAssay (NCI).
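Compound exposure: 48 hours, 5 concentrations, 96-well plates. Definition used: TGI = concentration required for complete inhibition of growth.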

Key:
Assay in all cases: growth of human tumour cells (NCI), 48 h
[1] = system: CCRF-CEM leukemia
[2] = system: COLO 205 colon
[3] = system: DMS 114 small cell lung
[4] = system: DMS 273 small cell lung
[5] = system: IGROV1 ovarian
[6] = system: LXFL 529 NSCLC
[7] = system: M19-MEL melanoma
[8] = system: SF-295 CNS
[9] = system: SF-539 CNS
[10] = system: SK-OV-3 ovarian
[11] = system: M14 melanoma
[12] = system: MCF7 breast

Row | Structure (SMILES) | TGI [1] | TGI [2] | TGI [3] | TGI [4] | TGI [5] | TGI [6] | TGI [7] | TGI [8] | TGI [9] | TGI [10] | TGI [11] | TGI [12]
1 | C/C=C1/C=CC2c3[nH]c4ccccc4c3CCN2C1 (configuration not stated) | > 400 µM | > 400 µM | > 400 µM | > 400 µM | > 400 µM | > 400 µM | > 400 µM | > 400 µM | > 400 µM | > 400 µM | – | –
2 | O=C(/C=C/c1ccccc1)CCN1CCCCC1 | > 100 µM | 38.4 µM | – | – | > 100 µM | – | – | > 100 µM | 37.7 µM | > 100 µM | 32.4 µM | 89.9 µM
3 | NC(CCC(=O)O)C(=O)NC(Cc1ccc(N(CCCl)CCCl)cc1)C(=O)O (configuration not stated) | > 100 µM | > 100 µM | – | – | > 100 µM | – | – | > 100 µM | > 100 µM | > 100 µM | > 100 µM | > 100 µM
4 | S=c1[nH]nc(Cn2c3ccc(Br)cc3c3nc4ccccc4nc32)o1 | > 100 µM | > 100 µM | – | – | > 90.2 µM | – | – | > 100 µM | > 80.7 µM | > 100 µM | > 100 µM | > 100 µM
5 | CCOC(OCC)(OCC)C(Br)CC (configuration not stated) | > 100 µM | > 100 µM | 25.3 µM | 34.5 µM | > 100 µM | > 100 µM | > 100 µM | > 100 µM | > 100 µM | > 100 µM | > 100 µM | –
6 | CCN(C(=O)N[C@@H](CC(C)C)C(=O)NCC(=O)OC)c1ccccc1 | > 100 µM | > 100 µM | – | – | > 100 µM | – | – | > 100 µM | > 100 µM | > 100 µM | > 100 µM | > 100 µM
7 | O=C(Nc1ccc(Cl)cc1Cl)C1C(=O)OC2(CCCCC2)OC1=O | 33.2 µM | 26.7 µM | – | – | 64.1 µM | – | – | 19.4 µM | 23.6 µM | 32.2 µM | 30.1 µM | 29.6 µM
8 | O=[N+]([O-])c1ccc2c3c1[C@@H]1O[C@@H]1c1cccc(c1-3)[C@@H]1O[C@H]21 | 8.17 µM | 23.1 µM | – | – | 2.72 µM | – | – | 40.8 µM | 4.02 µM | 44.3 µM | 9.9 µM | > 100 µM
9 | O=C(O)c1ccccc1/C=C1\Cc2cc3c(cc2C1=O)CCC3 | 44.2 µM | 44.8 µM | – | – | > 100 µM | – | – | 74.7 µM | 80.4 µM | > 100 µM | 53.7 µM | 68.5 µM
10 | CN(/N=C/c1ccccn1)C1=NCCN1 | > 100 µM | > 100 µM | – | – | > 100 µM | – | – | > 100 µM | > 100 µM | > 100 µM | > 100 µM | > 100 µM
11 | CCOC(=O)c1nc2ccc(C(F)(F)F)cc2nc1Oc1ccc(OC)cc1 | > 100 µM | > 100 µM | – | – | > 100 µM | – | – | > 100 µM | > 100 µM | > 100 µM | > 100 µM | > 100 µM
12 | COc1cc(Nc2cc(Cl)cc(Cl)c2)nc(N)n1 | 43.3 µM | 44.2 µM | – | – | 44.2 µM | – | – | 38.3 µM | 33 µM | 64.5 µM | 42.1 µM | 91.4 µM
13 | Cc1cccc(C)c1NC(=O)C(=O)CC(=O)c1sc(Nc2c(C)cccc2C)nc1C | > 100 µM | > 100 µM | – | – | > 100 µM | – | – | > 100 µM | > 100 µM | > 100 µM | > 100 µM | > 100 µM
14 | O=C1CSC(c2cc3cc(Br)ccc3nc2Cl)N1c1ccc(Cl)cc1 (configuration not stated) | 97.6 µM | 41.2 µM | – | – | > 100 µM | – | – | 37.6 µM | 37.8 µM | > 100 µM | 84.9 µM | 67.6 µM
